This is an account of results in ChEMBL document CHEMBL1201862, “PubChem BioAssay data set” (2004).

Structures are written as SMILES.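 48-hour exposure; five concentrations; linearly interpolated endpoints. GI50 = concentration required for 50% inhibition of growth.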 The source made the active and inactive calls. No stated cut-off is given here; in the data, active = GI50 up to about 1.1 µM and inactive = higher.

Test systems include SNB-75; OVCAR-5; SF-268; CAKI-1; SF-295; EKVX; SNB-19; IGROV-1; Hs-578T; HT-29; NCI/ADR-RES; RXF 393; T47D; SW-620; SR; SK-MEL-28; NCI-H460; U-251; BT-549; UACC-257.
Common to all, as to assay: NCI-60 cell line screen, 48 h

`CCOC(=O)/C=C(\C(=O)OCC)n1ccc(=O)n(Cc2cn(COCCOC(C)=O)nn2)c1=O`: the GI50 is > 42.7 µM (inactive) with SNB-75; 23.4 µM (inactive) in the assay on OVCAR-5; 26.1 µM (inactive) in the assay on SF-268; 8.67 µM (inactive) with CAKI-1; > 100 µM (inactive) with SF-295; 19.9 µM (inactive) in the assay on EKVX. For the same molecule, the GI50 was > 50.4 µM (inactive) in the assay on SNB-19; 21.1 µM (inactive) in the assay on IGROV-1; 26.5 µM (inactive) in the assay with Hs-578T; 16.2 µM (inactive) with HT-29; 20.3 µM (inactive) with NCI/ADR-RES; 15.7 µM (inactive) in the assay with RXF 393. The GI50 with T47D is 24.3 µM (inactive); in the assay on SW-620, 9.18 µM (inactive); in the assay with SR it was 21 µM (inactive); with SK-MEL-28, 18 µM (inactive); in the assay on NCI-H460 it was > 38.1 µM (inactive); in the assay on U-251 it was 18.9 µM (inactive). Moreover, the GI50 in the assay with BT-549 is 17.8 µM (inactive); with UACC-257 it was 22 µM (inactive).

With `O=C(Cc1ccc2ccccc2c1)NCc1ccc(C(=O)NCCc2ccccc2)cc1`, the GI50 in the assay with SNB-75, in the assay with OVCAR-5, in the assay with SF-268, in the assay on CAKI-1, in the assay with SF-295 and in the assay with EKVX was > 100 µM (inactive) each time. For the same molecule, the GI50 in the assay on SNB-19 is > 100 µM (inactive); with IGROV-1, > 100 µM (inactive); with Hs-578T it was > 100 µM (inactive); in the assay on HT-29 it was 94.4 µM (inactive); with NCI/ADR-RES it was > 100 µM (inactive); with RXF 393 it was > 100 µM (inactive). Also, the GI50 with T47D, with SW-620, in the assay with SR, with SK-MEL-28, with NCI-H460 and in the assay on U-251 was > 100 µM (inactive) each time. Besides, the GI50 in the assay with BT-549 and with UACC-257 was > 100 µM (inactive) in each case.

As to `Clc1ccccc1-c1nc(-c2ccncc2)no1` [PIFEXOLE], the GI50 in the assay with SNB-75 was 89.3 µM (inactive); in the assay with OVCAR-5 it was > 100 µM (inactive); in the assay with SF-268 it was 59.6 µM (inactive); with CAKI-1 it was 57.3 µM (inactive); in the assay with SF-295, 36.5 µM (inactive); in the assay on EKVX it was 16.1 µM (inactive). Also, the GI50 with SNB-19 was 96.2 µM (inactive); with IGROV-1, 71.3 µM (inactive); with Hs-578T, 36.6 µM (inactive); with HT-29 it was 66.1 µM (inactive); with NCI/ADR-RES it was 30.9 µM (inactive); in the assay on RXF 393, 29.3 µM (inactive). Further, the GI50 with T47D is 29.2 µM (inactive); with SW-620, 52.7 µM (inactive); in the assay on SR, 18.5 µM (inactive); in the assay with SK-MEL-28 it was > 100 µM (inactive); in the assay on NCI-H460, 58.7 µM (inactive); with U-251, 65.8 µM (inactive). Further, the GI50 in the assay on BT-549 is 42.3 µM (inactive); in the assay on UACC-257, 37.8 µM (inactive).

Consider `C=C(c1nc2ccc(Cl)cc2[nH]c1=O)C(O)c1ccc(C(O)C(=O)c2nc3ccc(Cl)cc3[nH]c2=O)cc1` (stereo not given), for which the GI50 with SNB-75, with OVCAR-5, in the assay with SF-268, in the assay on CAKI-1, in the assay with SF-295 and in the assay with EKVX was > 100 µM (inactive) in each case. Also, the GI50 with SNB-19 was > 100 µM (inactive); in the assay on IGROV-1 it was > 68.2 µM (inactive); with Hs-578T, > 100 µM (inactive); in the assay with HT-29, > 100 µM (inactive); with NCI/ADR-RES, > 100 µM (inactive); with RXF 393, > 100 µM (inactive). Moreover, the GI50 was > 100 µM (inactive) in the assay on T47D; > 100 µM (inactive) in the assay with SW-620; 83.6 µM (inactive) with SR; > 100 µM (inactive) with SK-MEL-28; > 100 µM (inactive) in the assay on NCI-H460; > 100 µM (inactive) with U-251. The GI50 with BT-549 and in the assay with UACC-257 was > 100 µM (inactive) throughout.

Regarding `CC(C)C(Nc1ncnc2nc[nH]c12)C(=O)O` (stereo not given), the GI50 with SNB-75, in the assay on OVCAR-5, in the assay on SF-268, in the assay with CAKI-1, with SF-295 and with EKVX was > 100 µM (inactive) each time. Further, the GI50 with SNB-19, with IGROV-1, in the assay with Hs-578T, with HT-29, in the assay on NCI/ADR-RES and in the assay with RXF 393 was > 100 µM (inactive) in each case. Also, the GI50 in the assay on T47D, in the assay on SW-620, with SR, with SK-MEL-28, in the assay on NCI-H460 and in the assay with U-251 was > 100 µM (inactive) in each case. The GI50 in the assay with BT-549 and in the assay with UACC-257 was > 100 µM (inactive) throughout.

Take `C=C1COC(O)(C2OCOC(C3CC(=O)NC(=O)C3)C2O)C1C` (stereo not given): the GI50 in the assay on SNB-75 was 0.00494 µM (active); in the assay with OVCAR-5, < 0.0126 µM (active); in the assay with SF-268, 0.00511 µM (active); with CAKI-1, 0.00468 µM (active); with SF-295, 0.00305 µM (active); in the assay with EKVX, 0.00689 µM (active). Besides, the GI50 was 0.00233 µM (active) in the assay on SNB-19; 0.00562 µM (active) with IGROV-1; 0.00629 µM (active) with Hs-578T; 0.00278 µM (active) with HT-29; 0.017 µM (active) in the assay on NCI/ADR-RES; 0.00404 µM (active) in the assay with RXF 393. Further, the GI50 in the assay on T47D is 0.00146 µM (active); in the assay with SW-620, 0.0043 µM (active); in the assay with SR, 0.00213 µM (active); in the assay with SK-MEL-28, 0.00573 µM (active); with NCI-H460, 0.00413 µM (active); in the assay on U-251 it was 0.00341 µM (active). The GI50 with BT-549 is 0.00565 µM (active); with UACC-257, 0.00802 µM (active).

Turning to `COc1cc2ccc(C(C)NCC#N)cc2cc1OC` (stereo not given), the GI50 in the assay on SNB-75, with OVCAR-5, in the assay on SF-268, in the assay with CAKI-1, in the assay with SF-295 and in the assay with EKVX was > 100 µM (inactive) throughout. Also, the GI50 with SNB-19 is > 100 µM (inactive); in the assay on IGROV-1, > 100 µM (inactive); with Hs-578T it was > 100 µM (inactive); in the assay on HT-29, 75.2 µM (inactive); in the assay with NCI/ADR-RES, > 100 µM (inactive); in the assay on RXF 393, > 100 µM (inactive). The GI50 in the assay on T47D was > 100 µM (inactive); with SW-620, > 100 µM (inactive); in the assay with SR, 28.1 µM (inactive); in the assay on SK-MEL-28, > 100 µM (inactive); in the assay on NCI-H460 it was > 100 µM (inactive); in the assay on U-251, > 100 µM (inactive). Moreover, the GI50 in the assay with BT-549 and with UACC-257 was > 100 µM (inactive) in each case.

Regarding `O=C1C(Cl)=C(N2CCN(c3ncccn3)CC2)C(=O)c2c(O)ccc(O)c21`, the GI50 with SNB-75 was 9.02 µM (inactive); in the assay on OVCAR-5, 7.91 µM (inactive); in the assay with SF-268, 3.15 µM (inactive); with CAKI-1, 2.05 µM (inactive); with SF-295, 12.4 µM (inactive); in the assay on EKVX it was 11.4 µM (inactive). Also, the GI50 with SNB-19 is 6.55 µM (inactive); in the assay with IGROV-1 it was 1.9 µM (inactive); in the assay with Hs-578T, 2.9 µM (inactive); in the assay on HT-29, 2.98 µM (inactive); in the assay with NCI/ADR-RES it was 3.01 µM (inactive); in the assay on RXF 393 it was 1.78 µM (inactive). For the same molecule, the GI50 with T47D is 2.64 µM (inactive); in the assay with SW-620, 1.36 µM (inactive); with SR, 0.265 µM (active); in the assay with SK-MEL-28 it was 2.23 µM (inactive); in the assay on NCI-H460 it was 15.3 µM (inactive); in the assay with U-251, 3.63 µM (inactive). For the same molecule, the GI50 in the assay on BT-549 is 2.14 µM (inactive); in the assay with UACC-257 it was 1.84 µM (inactive).

For `CCOC(=O)c1cnc2[nH]ccn2c1=O`, the GI50 with SNB-75, with OVCAR-5, in the assay on SF-268, in the assay on CAKI-1, in the assay with SF-295 and with EKVX was > 10 µM (inactive) each time. In addition, the GI50 with SNB-19, in the assay with IGROV-1, in the assay on Hs-578T, in the assay with HT-29, in the assay with NCI/ADR-RES and in the assay with RXF 393 was > 10 µM (inactive) throughout. The GI50 in the assay on T47D, with SW-620, with SR, with SK-MEL-28, in the assay on NCI-H460 and with U-251 was > 10 µM (inactive) in each case. The GI50 with BT-549 and with UACC-257 was > 10 µM (inactive) each time.

For `CCOc1ccc(/N=C/c2ccnc3ccccc23)cc1`, the GI50 in the assay on SNB-75 was 29.2 µM (inactive); in the assay with OVCAR-5, 99.3 µM (inactive); in the assay with SF-268, 27.2 µM (inactive); in the assay with CAKI-1, 74.3 µM (inactive); in the assay on SF-295, 49.1 µM (inactive); in the assay with EKVX it was > 93.1 µM (inactive). Further, the GI50 in the assay on SNB-19 was 82.8 µM (inactive); in the assay on IGROV-1 it was 43 µM (inactive); in the assay with Hs-578T, 40.4 µM (inactive); in the assay with HT-29, 27.3 µM (inactive); in the assay with NCI/ADR-RES, 35.9 µM (inactive); in the assay with RXF 393, > 96.6 µM (inactive). Further, the GI50 in the assay on T47D was 47.9 µM (inactive); with SW-620, 4.56 µM (inactive); in the assay with SR, 0.752 µM (active); with SK-MEL-28, 50.1 µM (inactive); in the assay on NCI-H460, 61.7 µM (inactive); in the assay on U-251, 32.7 µM (inactive). In addition, the GI50 in the assay on BT-549 is 34.4 µM (inactive); in the assay on UACC-257, 98.6 µM (inactive).
